Measured values published in patent US6627771B1, “Gamma amino butyric and acid analogs” (Pfizer Inc, priority 1998, dated 2003).
Read-outs that look alike come from different tables or passages of the source.

Key:
[1] = target: System L; assay: System L Binding
[2] = test system: Carrageenin-Induced Hyperalgesia; assay: Pain Model (Carrageenin-Induced Hyperalgesia, rat paw pressure test); format: in vivo
Protocol: Carrageenin-Induced Hyperalgesia
Nociceptive pressure thresholds were measured in the rat paw pressure test using an analgesymeter (Randall-Sellitto Method: Randall L. O., Sellitto J. J., A method for measurement of analgesic activity on inflamed tissue. Arch. Int. Pharmacodyn., 4:409-419 (1957)). Male Sprague-Dawley rats (70-90 g) were trained on this apparatus before the test day. Pressure was gradually applied to the hind paw of each rat and nociceptive thresholds were determined as the pressure (g) required to elicit paw withdrawal. A cutoff point of 250 g was used to prevent any tissue damage to the paw. On the test day, two to three baseline measurements were taken before animals were administered 100 μL of 2% carrageenin by intraplantar injection into the right hind paw.

[3] = test system: Vogel Conflict (punished drinking) in Wistar rats; assay: Vogel Conflict; format: in vivo, rat; conditions: summary of Table 1
Protocol: Vogel J. R., Beer B. and Cloody D. E., 1971, reported the procedure used. Basically, in each experiment, 100 näive adult male Wistar rats between 170-220 gm were randomly divided into 10 groups and deprived of water for 48 hours prior to testing. Food was available on Day 1 and removed 24 hours prior to test Day 2.
On Day 1, experimental subjects were placed into the test chambers and allowed to drink 5 mL of water unpunished from a drinking tube on a water bottle mounted on the outside of the chamber. Immediately following the unpunished drinking session, each rat was dosed (PO) with vehicle (1 mL/kg) and returned to their home cage. On test Day 2, rats are dosed with the appropriate treatment and placed in test cages, following a 2-hour absorption period each rat is placed into a test chamber and allowed to drink for 10 minutes. Adjacent to the drink-tube is an optical lickmeter with a photo beam detector that counts the number of licks during active drinking. Every 10 licks, the rats received 1-second shock (1 mA) through the drink tube. Thus, a conflict or anxiety-producing situation exists; rats are motivated to drink, however, they are inhibited by the shock. Anxiety is reflected by the low amounts of drinking. Standard anxiolytic drugs produce effects that allow rats to overcome this behavioral inhibition and drink despite the shock.

[4] = test system: sound-induced seizure responses in DBA/2 mice; assay: DBA2 Mouse Model of Anticonvulsant Efficacy; format: in vivo; conditions: for responders at 30 mg/kg: Mus musculus, po, read-out: DBA2 Mouse Model % Protected
Protocol: DBA2 Mouse Model of Anticonvulsant Efficacy
All procedures were carried out in compliance with the NIH Guide for the Care and Use of Laboratory Animals under a protocol approved by the Parke-Davis Animal Use Committee. Male DBA/2 mice, 3 to 4 weeks old were obtained from Jackson Laboratories Bar Harbour, Maine. Immediately before anticonvulsant testing, mice were placed upon a wire mesh, 4 inches square, suspended from a steel rod. The square was slowly inverted through 180° and mice observed for 30 seconds. Any mouse falling from the wire mesh was scored as ataxic (Coughenour L. L., McLean J. R., Parker R. B., “A new device for the rapid measurement of impaired motor finction in mice,” Pharm. Biochem. Behav., 1977;6(3):351-3). Mice were placed into an enclosed acrylic plastic chamber (21 cm height, approximately 30 cm diameter) with a high-frequency speaker (4 cm diameter) in the center of the top lid. An audio signal generator (Protek model B-810) was used to produce a continuous sinusoidal tone that was swept linearly in frequency between 8 kHz and 16 kHz once each 10 msec. The average sound pressure level (SPL) during stimulation was approximately 100 dB at the floor of the chamber. Mice were placed within the chamber and allowed to acclimatize for one minute. […] The incidence of all the seizure phases in the drug-treated and vehicle-treated mice was recorded, and the occurrence of tonic seizures were used for calculating anticonvulsant ED50 values by probit analysis (Litchfield J. T., Wilcoxon F. “A simplified method for evaluating dose-effect experiments,” J. Pharmacol., 1949;96:99-113). […] Groups of DBA/2 mice (n=5-10 per dose) were tested for sound-induced seizure responses 2 hours (previously determined time of peak effect) after given drug orally. […] Doses are expressed as weight of the active drug moiety.

For `NC[C@@H](CC(=O)O)C1CCCC1` [5S−, (S)-4-Amino-3-cyclopentyl-butyric Acid], the IC50 [1] was 476 µM, the “Pain Model % MPE 1 Hour” value [2] was 35 % MPE and the “Pain Model % MPE 2 Hour” value [2] was 24 % MPE.
For `NCC(CC(=O)O)C1CCCC1` (centres unmarked) [Example 3, 4-Amino-3-cyclopentyl-butyric Acid], the IC50 [1] was 464 µM, the “Pain Model % MPE 1 Hour” value [2] was 73.8 % MPE and the “Pain Model % MPE 2 Hour” value [2] was 27.7 % MPE.
`NC[C@H](CC(=O)O)C1CCCC1` [4R+, 4(R)-Amino-3-cyclopentyl-butyric Acid] was tested, and the “antianxiety activity” value [3] was “especially active”, the IC50 [1] was 198 µM and the “Pain Model % MPE 1 Hour” value [2] was 36 % MPE. The “Pain Model % MPE 2 Hour” value [2] was 13.7 % MPE, the “antihyperalgesic activity” value ([2]; summary of Table 1) was “especially active” and the “preventing convulsions” value ([4]; summary of Table 1) was “especially active”.
For `NCC(CC(=O)O)C1CCC1` (centres unmarked) [Example 2, 4-Amino-3-cyclobutyl-butyric Acid], the IC50 [1] was 1500 µM, the “Pain Model % MPE 1 Hour” value [2] was −1.7 % MPE and the “Pain Model % MPE 2 Hour” value [2] was −12.1 % MPE. The responders at 30 mg/kg ([4]; 1 Hr @ 30 m/k) was 0% and the responders at 30 mg/kg ([4]; 2 Hr @ 30 m/k) was 40%.
With `NCC(CC(=O)O)CC1CCCCC1` (centres unmarked) [Example 9] the IC50 [1] was 5500 µM.
`CC(CN)(CC(=O)O)C1CC1` (centres unmarked) [Example 10] was tested, and the IC50 [1] was 599 µM, the “Pain Model % MPE 1 Hour” value [2] was −4.3 % MPE and the “Pain Model % MPE 2 Hour” value [2] was −9.1 % MPE.
In the case of `NCC(CC(=O)O)CC1CCCC1` (centres unmarked) [Example 8], the IC50 [1] is reported as 4640 µM.
With `NCC(CC(=O)O)CC1CC1` (centres unmarked) [Example 6] the IC50 [1] was 1870 µM, the “Pain Model % MPE 1 Hour” value [2] was 2.3 % MPE and the “Pain Model % MPE 2 Hour” value [2] was −3.4 % MPE.
`CC(CN)(CC(=O)O)CC1CCCC1` (centres unmarked) [Example 13] showed an IC50 [1] of 1040 µM.
In the case of `CC(CN)(CC(=O)O)C1CCC1` (centres unmarked) [Example 11], the IC50 [1] is reported as 74 µM, the “Pain Model % MPE 1 Hour” value [2] is reported as 4.2 % MPE and the “Pain Model % MPE 2 Hour” value [2] is reported as 3.1 % MPE.
With `NCC(CC(=O)O)CC1CCC1` (centres unmarked) [Example 7] the IC50 [1] was 2600 µM, the “Pain Model % MPE 1 Hour” value [2] was 1.5 % MPE and the “Pain Model % MPE 2 Hour” value [2] was −3.4 % MPE.
With `CC(CN)(CC(=O)O)CC1CCC1` (centres unmarked) [Example 12] the IC50 [1] was 105 µM, the “Pain Model % MPE 1 Hour” value [2] was −4.2 % MPE and the “Pain Model % MPE 2 Hour” value [2] was −5.2 % MPE.
